What was measured:
[1] = test system: doxorubicin-induced apoptosis in retinal ganglion cells; experiment: Doxorubicin-induced apoptosis in rat retinal ganglion cells (intravitreal doxorubicin, TUNEL staining, stereological disector); type: in vivo
Description: (§1) Apoptosis is a significant component of cell death in optic and/or eye diseases including (i) all forms of primary and secondary glaucoma, preferably such as e.g. primary open-angle glaucoma, normal-tension glaucoma, primary angle-closure glaucoma, pseudoexfoliation syndrome and glaucoma, pigment dispersion syndrome and glaucoma, neovascular glaucoma, inflammatory glaucoma, lens-related glaucoma, traumatic glaucoma, primary congenital glaucoma, iatrogenic induced glaucoma, and malignant glaucoma (R. Agarwal, S. K. Gupta, P. Agarwal, R. Saxena & S. S. Agrawal (2009) Indian J. Ophthalmol. 57, 257-266); (ii) aquired macular disorders, preferably such as e.g. age-related macular degeneration, idiopathic choroidal neovascularisation, central serous chorioretinopathy, vitreomacular interface disorders, idiopathic macular telangiectasia, cystoid macular oedema, and microcystic macular oedema (J. L. Dunaief, T. Dentchev, G.-S. Ying & A. H. Milam (2002) Arch. Ophthalmol. 120, 1435-1442); (iii) optic neuropathy, preferably such as e.g. anterior or posterior ischemic optic neuropathy (B. J. Slater, Z. Mehrabian, Y. Guo, A. Hunter & S. L. Bernstein (2008) Invest. Ophthalmol. Vis. Sci. 49, 3671-3676); (iv) optic neuritis (K. S. Shindler, E. Ventura, M. Dutt & A. Rostami (2008) Exp.Eye Res. 87, 208-213); (v) uveitis, preferably such as e.g. anterior uveitis, intermediate uveitis, posterior uveitis, and panuveitis (C.-C. Chan, D. M. Matteson, Q. Li, S. M. Whitcup & R. B. Nussenblatt (1997) Arch. Ophthalmol. 115, 1559-1567); (vi) hereditary fundus dystrophies, preferably such as e.g. retinitis pigmentosa, cone dystrophy, cone-rod dystrophy, rod dystrophy, Stargardt's disease, Bietti's crystalline corneoretinal dystrophy, familial benign fleck retina, Best vitelliform macular dystrophy, adult-onset vitelliform macular dystrophy, North Carolina macular dystrophy, familial dominant drusen, and concentric annular macular dystrophy (H. Zhang, X. Li, X. Dai, J. Han, Y. Zhang, Y. Qi, Y. He, Y. Liu, B. Chang & J. J. Pang (2017) J. Ophthalmol. 2017, 1-13 9721362); (vii) retinal vascular diseases, preferably such as e.g. diabetic retinopathy, non-diabetic retinopathy, retinal venous occlusive disease, retinal arterial occlusive disease, ocular ischemic syndrome, hypertensive eye disease, sickle cell retinopathy, thalassemia retinopathy, retinopathy of prematurity, retinal artery macroaneurysm, primary retinal telangiectasia, Eales disease, and radiation retinopathy (G. Donati, A. Kapetanios, M. Dubois-Dauphin & C. J. Pournaras (2008) Acta Ophthalmol. 86, 302-306); (viii) scleritis or episcleritis (C. Heinz, N. Bograd, J. Koch & A. Heiligenhaus (2013) Graefes Arch. Clin. Exp. Ophthalmol. 251, 139-142); (ix) retinal detachments (J. G. Arroyo, L. Yang, D. Bula & D. F. Chen (2005) Am. […]

[2] = test system: doxorubicin-induced apoptosis in the liver; experiment: Doxorubicin-induced apoptosis in rat liver (TUNEL staining, stereological disector); type: in vivo
Description: as §1

[3] = 60 mg/kg/d s.c., result in words
[4] = vs doxorubicin + vehicle, 60 mg/kg/d s.c.

SMILES: O=C(O)CN1C(=O)[C@@H](NC(=O)C2(C[C@@H](CCc3ccccc3)C(=O)O)CCCC2)CCc2ccccc21 [Example (6), (2R)-2-{[1-({[(3S)-1-(carboxymethyl)-2-oxo-2,3,4,5-tetrahydro-1H-1-benzazepin-3-yl]amino}carbonyl)cyclopentyl]methyl}-4-phenylbutanoic acid]
- Protection against doxorubicin induced apoptosis in the retina (reduction of Nv of TUNEL positive cells vs vehicle) [1, 3]: significant protection
- Nv, number of TUNEL positive cells, retinal ganglion cells (RGC) ([1]; Wistar rats, 60 mg/kg/d s.c. osmotic minipump, doxorubicin 5 μg into vitreous body day 1, 5 days after, mean ± SEM): 33.64 ± 0.96 TUNEL positive cells×10^3/mm^3
- Nv as % of doxorubicin + vehicle, RGC ([1]; Wistar rats, 60 mg/kg/d s.c. osmotic minipump, doxorubicin 5 μg into vitreous body day 1, day 5): 91.79%
- Decrease of density of apoptotic cells in the retina [1, 4]: 8.21%
- Protection against doxorubicin induced apoptosis in the liver (reduction of Nv of TUNEL positive cells vs vehicle) [2, 3]: significant protection
- Nv, number of TUNEL positive cells, liver ([2]; Wistar rats, 60 mg/kg/d s.c. osmotic minipump, doxorubicin 5 mg/kg i.p. t.i.d. days 1-3, 5 days after first injection, mean ± SEM): 7.93 ± 0.25 TUNEL positive cells×10^2/mm^3
- Nv as % of doxorubicin + vehicle, liver ([2]; Wistar rats, 60 mg/kg/d s.c. osmotic minipump, doxorubicin 5 mg/kg i.p. t.i.d. days 1-3, day 5): 76.54%
- Decrease of density of apoptotic cells in the rat liver [2, 4]: 23.46%

— patent US20210046097A1, “NEUTRAL ENDOPEPTIDASE (NEP) AND HUMAN SOLUBLE ENDOPEPTIDASE (hSEP) INHIBITORS FOR PROPHYLAXIS AND TREATMENT OF EYE DISEASES” (FORTY-FOUR PHARMACEUTICALS SP. Z.O.O, priority 2018, published 2021)
